Measurements taken from ChEMBL document CHEMBL4376872, “Scaffold Hopping of Natural Product Evodiamine: Discovery of a Novel Antitumor Scaffold with Excellent Potency against Colon Cancer” (J Med Chem, 2020).
Active and inactive are the calls of the source. No cut-off for these calls is given here.

Legend:
[1] = tested on: HCT-116; assay: Antiproliferative activity against human HCT116 cells assessed as reduction in cell viability incubated for 72 hrs by CCK8 assay; assay type: functional, cell-based; settings: HCT-116, 72 h
[2] = tested on: A549; assay: Antiproliferative activity against human A549 cells assessed as reduction in cell viability incubated for 72 hrs by CCK8 assay; assay type: functional, cell-based; settings: A549, 72 h
[3] = tested on: MDA-MB-435; assay: Antiproliferative activity against human MDA-MB-435 cells assessed as reduction in cell viability incubated for 72 hrs by CCK8 assay; assay type: functional, cell-based; settings: MDA-MB-435, 72 h
[4] = target: T1, DNA topoisomerase 1 (Escherichia coli (strain K12)) (UniProt P06612); assay: Inhibition of Escherichia coli Top1 assessed as decrease in relaxation of supercoiled pBR322 plasmid DNA at 100 uM using supercoiled pBR322 plasmid DNA as substrate incubated for 15 mins by agarose gel electrophoresis analysis
T1 sequence (whole entry): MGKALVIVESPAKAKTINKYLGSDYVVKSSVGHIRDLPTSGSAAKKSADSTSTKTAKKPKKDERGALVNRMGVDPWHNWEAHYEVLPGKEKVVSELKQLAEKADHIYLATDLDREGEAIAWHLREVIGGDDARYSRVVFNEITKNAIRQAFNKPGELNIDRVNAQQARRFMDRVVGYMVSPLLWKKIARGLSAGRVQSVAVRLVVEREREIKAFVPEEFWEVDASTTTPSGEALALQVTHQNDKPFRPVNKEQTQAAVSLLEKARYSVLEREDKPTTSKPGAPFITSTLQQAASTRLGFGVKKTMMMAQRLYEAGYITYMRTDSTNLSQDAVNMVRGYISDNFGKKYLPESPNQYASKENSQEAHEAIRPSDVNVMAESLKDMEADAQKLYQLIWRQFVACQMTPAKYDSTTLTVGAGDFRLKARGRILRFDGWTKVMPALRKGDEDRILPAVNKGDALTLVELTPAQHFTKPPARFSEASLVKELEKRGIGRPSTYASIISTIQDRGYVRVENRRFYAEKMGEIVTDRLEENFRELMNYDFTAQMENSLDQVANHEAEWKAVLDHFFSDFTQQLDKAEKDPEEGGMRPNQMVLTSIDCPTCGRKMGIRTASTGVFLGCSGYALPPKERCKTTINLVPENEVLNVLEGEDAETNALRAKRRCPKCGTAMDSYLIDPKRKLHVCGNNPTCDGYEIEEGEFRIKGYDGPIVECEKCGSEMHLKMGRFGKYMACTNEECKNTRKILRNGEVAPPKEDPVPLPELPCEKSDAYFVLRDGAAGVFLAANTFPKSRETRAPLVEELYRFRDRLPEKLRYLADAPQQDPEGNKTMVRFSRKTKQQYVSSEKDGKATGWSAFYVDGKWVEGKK

[5] = target: DNA topoisomerase 2-alpha (Homo sapiens) (UniProt P11388); assay: Inhibition of human Top2alpha assessed as decrease in relaxation of supercoiled pBR322 plasmid DNA at 100 uM using supercoiled pBR322 plasmid DNA as substrate incubated for 30 mins by agarose gel electrophoresis analysis
DNA topoisomerase 2-alpha (Homo sapiens), sequence (P11388 whole entry): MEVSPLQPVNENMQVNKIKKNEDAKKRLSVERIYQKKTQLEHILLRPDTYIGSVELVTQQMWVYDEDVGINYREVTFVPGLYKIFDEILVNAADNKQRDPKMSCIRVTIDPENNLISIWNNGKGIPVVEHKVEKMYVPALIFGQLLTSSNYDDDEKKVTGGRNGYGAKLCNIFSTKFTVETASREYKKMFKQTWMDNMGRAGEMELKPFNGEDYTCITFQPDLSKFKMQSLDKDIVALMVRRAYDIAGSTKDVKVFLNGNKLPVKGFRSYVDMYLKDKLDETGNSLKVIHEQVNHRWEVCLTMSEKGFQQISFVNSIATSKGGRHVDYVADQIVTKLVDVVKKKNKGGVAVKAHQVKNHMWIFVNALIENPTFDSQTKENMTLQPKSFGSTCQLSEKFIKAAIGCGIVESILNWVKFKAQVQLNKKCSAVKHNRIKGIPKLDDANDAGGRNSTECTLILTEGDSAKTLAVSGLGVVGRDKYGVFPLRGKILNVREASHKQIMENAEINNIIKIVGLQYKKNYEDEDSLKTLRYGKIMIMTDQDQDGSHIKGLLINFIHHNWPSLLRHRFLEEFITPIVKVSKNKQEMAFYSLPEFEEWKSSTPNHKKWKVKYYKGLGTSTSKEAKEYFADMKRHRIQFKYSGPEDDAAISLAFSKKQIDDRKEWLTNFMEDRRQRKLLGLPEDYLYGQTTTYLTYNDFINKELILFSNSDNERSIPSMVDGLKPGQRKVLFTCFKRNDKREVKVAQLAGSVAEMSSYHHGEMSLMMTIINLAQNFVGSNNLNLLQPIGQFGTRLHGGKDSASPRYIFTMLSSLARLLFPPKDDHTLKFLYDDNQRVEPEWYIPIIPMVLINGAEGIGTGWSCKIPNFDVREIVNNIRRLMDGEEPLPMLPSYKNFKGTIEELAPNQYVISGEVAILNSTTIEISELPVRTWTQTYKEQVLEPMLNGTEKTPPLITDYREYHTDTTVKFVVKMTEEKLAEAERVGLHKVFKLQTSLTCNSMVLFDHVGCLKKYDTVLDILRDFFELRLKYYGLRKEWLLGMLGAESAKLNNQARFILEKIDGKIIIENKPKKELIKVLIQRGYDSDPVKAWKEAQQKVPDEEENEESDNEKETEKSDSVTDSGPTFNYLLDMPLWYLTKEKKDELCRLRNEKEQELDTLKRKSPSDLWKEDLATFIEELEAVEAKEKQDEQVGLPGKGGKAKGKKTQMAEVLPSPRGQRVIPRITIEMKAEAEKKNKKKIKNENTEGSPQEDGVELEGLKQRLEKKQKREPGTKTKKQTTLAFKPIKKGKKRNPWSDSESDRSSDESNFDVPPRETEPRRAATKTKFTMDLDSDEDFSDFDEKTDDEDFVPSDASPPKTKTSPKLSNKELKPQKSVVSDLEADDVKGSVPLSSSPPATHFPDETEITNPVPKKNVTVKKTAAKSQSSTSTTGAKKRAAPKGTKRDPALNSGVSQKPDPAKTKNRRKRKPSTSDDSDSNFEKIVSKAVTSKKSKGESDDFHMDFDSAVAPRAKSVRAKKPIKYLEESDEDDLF

IC50 [1]	IC50 [2]	IC50 [3]	inhibition [4]	inhibition [5]	Structure (SMILES)
> 200 µM	111 µM	> 200 µM	–	–	CN1c2ccccc2C(=O)N2CCCn3c(cc4cc(O)ccc43)C21 (stereo not drawn)
19.4 µM	> 200 µM	> 200 µM	–	–	COc1ccc2c(c1)cc1n2CCN2C(=O)c3cc(C)ccc3N(C)C12 (stereo not drawn)
5.8 µM	72.1 µM	41.5 µM	–	–	COc1ccc2c(c1)c(CO)c1n2CCN2C(=O)c3cc(C)ccc3N(C)C12 (stereo not drawn)
1.5 µM	> 200 µM	10.7 µM	–	–	COc1ccc2c(c1)cc1n2C(C)(C)CN2C(=O)c3cc(F)ccc3N(C)C12 (stereo not drawn)
47.5 to 48.5 µM	21.5 µM	> 200 µM	Active	inactive	CN1c2ccccc2C(=O)N2CCn3c(cc4ccccc43)C21 (stereo not drawn)
180 µM	30.8 µM	> 200 µM	–	–	COc1ccc2c(c1)N(C)C1c3cc4cc(OC)ccc4n3CCN1C2=O (stereo not drawn)
> 200 µM	> 200 µM	> 200 µM	–	–	CN1c2ccn(C)c2C(=O)N2CCn3c(cc4cc(O)ccc43)C21 (stereo not drawn)
0.01 µM	31.3 µM	11.4 µM	–	–	[2H]C([2H])([2H])Oc1ccc2c(c1)cc1n2CCN2C(=O)c3cc(F)ccc3N(C)C12 (stereo not drawn)
> 200 µM	59.2 µM	> 200 µM	–	–	COc1ccc2c(c1)c(C=O)c1n2CCN2C(=O)c3cc(F)ccc3N(C)C12 (stereo not drawn)
124 µM	24.3 µM	> 200 µM	–	–	COc1ccc2c(c1)N(C)C1c3cc4ccccc4n3CCN1C2=O (stereo not drawn)
44.3 µM	14.5 µM	16.8 µM	–	–	CN1c2ccccc2C(=O)N2CCn3c(cc4cc(O)ccc43)C21 (stereo not drawn)
56 µM	32 µM	196 µM	–	–	COc1ccc2c(c1)cc1n2CCCN2C(=O)c3ccccc3N(C)C12 (stereo not drawn)
9.4 µM	8.3 µM	85.8 µM	–	–	CSc1ccc2cc3n(c2c1)CCN1C(=O)c2cc(F)ccc2N(C)C31 (stereo not drawn)
57.9 µM	> 200 µM	> 200 µM	–	–	CN1c2ccc(F)cc2C(=O)N2CCn3c(cc4cc(OC5CCCC5)ccc43)C21 (stereo not drawn)
12 µM	2.7 µM	20.2 µM	–	–	COc1ccc2c(c1)cc1n2CCN2C(=O)c3ccccc3N(C)C12 (stereo not drawn)
7.3 µM	15.2 µM	15.9 µM	–	–	CN1c2ccccc2C(=O)N2CCn3c(cc4cc(Br)ccc43)C21 (stereo not drawn)
5.5 µM	32.9 µM	5.82 µM	–	–	COc1ccc2c(c1)c(CN1CCN(C)CC1)c1n2CCN2C(=O)c3cc(F)ccc3N(C)C12 (stereo not drawn)
34.1 µM	98.5 µM	> 200 µM	–	–	CN1c2ccc(F)cc2C(=O)N2CCn3c(cc4cc(OC5CCC5)ccc43)C21 (stereo not drawn)
4.4 µM	27.7 µM	13.5 µM	Active	inactive	CN1c2ccccc2C(=O)N2CCn3c(cc4cc(Cl)ccc43)C21 (stereo not drawn)
9.5 µM	47 µM	44.6 µM	–	–	COc1ccc2c(c1)cc1n2CCN2C(=O)c3sccc3N(C)C12 (stereo not drawn)
> 200 µM	> 200 µM	22.1 µM	–	–	CN1c2ccccc2C(=O)N2CCc3c([nH]c4ccccc34)[C@H]21
190 µM	> 200 µM	> 200 µM	–	–	COc1ccc2c(c1)cc1n2CCN2C(=O)c3c(ccn3C)N(C)C12 (stereo not drawn)
> 121 µM	> 200 µM	23.8 µM	–	–	COc1ccc2c(c1)cc1n2CCN2C(=O)c3cc(OC)c(OC)cc3N(C)C12 (stereo not drawn)
